“Also recorded” adds a separate entry of the source.
How the values were obtained:
primary rat hepatocyte = experiment: TCEP toxicity study in primary rat hepatocyte (MTT); type: cell-based; details: for primary rat hepatocyte viability: MTT, ratio to untreated
Experimental: Primary rat hepatocyte was seeded on collagen coated well in 24-well plate format (0.3×10^6 cell per well). The culture was maintained for 3 days and the medium was replenished every day. On the 3rd day, the cells were incubated with TCEP solution in Williams' E medium at pre-determined concentrations and time; 5 mM for 1.5 hour, 10 and 25 mM for 30 minutes each. The duration of the incubation was chosen based on the ability of the associated TCEP concentrations to completely cleave HPCSS Gal sponge. Upon incubation, the morphology of the cells was monitored and followed with further incubation of 1 mg/mL (3-(4,5-dimethylthiazol-2-yl)-2,5-diphenyltetrazolium bromide (MTT) solution for 3 hours. The formed formazan product in each well was dissolved with 300 μL of 0.04 M HCl in isopropanol and its optical density was measured by TECAM Infinite M1000 microplate reader at 570 nm. Cell viability was determined by calculating the ratio of treated sample absorbance against untreated sample absorbance.

[1] = tested on: F-actin, E-cadherin and MRP2; experiment: Immunofluorescence staining of polarity markers and cell-cell junction of retrieved hepatocyte spheroids; type: cell-based, rat; details: 10 mM TCEP to cleave the sponge
Experimental: To stain F-actin, E-cadherin and MRP2, hepatocytes spheroids cultured for 72 hours post-seeding in the sponges and retrieved from HPCSS Gal sponges were fixed in 3.7% paraformaldehyde for 10 minutes. For staining F-actin, the cells were permeabilized for 5 minutes in 0.1% Triton X-100 and incubated with 1 μg/mL TRITC-phalloidin (Molecular Probes, USA) for 20 minutes. For E-cadherin and MRP2 staining, following washing and blocking with 2% BSA/0.2% Triton-X 100 the spheroids were incubated overnight at 4° C. with primary antibodies: anti-rat E-cadherin (BD, USA) and rabbit anti-rat MRP2 (Sigma Aldrich, Singapore), respectively. Secondary antibodies used were goat anti-mouse and goat anti-rabbit 488 and 555 (Molecular Probes, USA), respectively. Nuclei stain was captured using DAPI stain (Vecta Shield, UK). Images were captured using Olympus fluoview FV1000 with a 60× water lens. Images were analysed using IMARIS and assembled using Adobe illustrator CS3.

cells = details: 10 mg/mL, 24 hours of exposure; cited from earlier work
[2] = tested on: CYP1A2, CYP2B2 and CYP3A2; experiment: RT-PCR gene expression of cytochrome P450 genes in hepatocyte spheroids; type: cell-based; details: 10 mM TCEP, 30 minutes, rat hepatocyte spheroids
Experimental: Rat hepatocyte, E1 and mESCs spheroids were retrieved from the sponge by incubating cell seeded-cleavable sponge with 3 mL of 10 mM TCEP in respective cell culture mediums in each well of 12-well plate for 30 minutes at 37° C. (incubator set up 5% CO2 and 95% humidity). The cleaved sponge solution from each well was mixed thoroughly by 3 mL plastic dropper and then transferred into 15 mL falcon tube. This solution was further diluted with 3 mL pre-warmed DPBS and centrifuged at 100×g for 10 minutes. This washing step was repeated three times to remove TCEP solution completely. Eventually, the retrieved hepatocyte spheroids were resuspended in fresh mediums and replated on collagen coated dish or poly-L-lysine coated dish for further assays or spheroids manipulation.
RNA was extracted from hepatocytes cultured as 3D spheroids in HPCSS Gal sponges by RLT lysis buffer (Qiagen, Singapore). Total RNA concentration was quantified by a Nanodrop (Thermoscientific) and 1 μg of RNA was converted to cDNA by High Capacity RNA-to-cDNA (Applied Biosystems). Primers were designed using Primer 3 and real-time PCR was performed by using SYBR green fast master mix on a ABI 7500 Fast Real-Time PCR system (Applied Biosystems). Gene expression was calculated using the ΔΔCT method normalized to GAPDH. The primers used in experiment are shown below.

[3] = reduction of disulfide bonds; cited from earlier work
[4] = Sponge cleavage condition optimization (visual monitoring of sponge incubated with reductant); details: 37° C.; for Remarks: sponge cleavage: 1 mM reductant in William's E medium
Experimental: For easy visualization during cleavage, HPCSS Gal sponges were pre-soaked in 0.25 mg/mL propidium iodide overnight (Molecular Probes, USA). The stained sponges were incubated with 3 mL each of TCEP and DTT (as known strong reductant) per sponge at various concentrations (25, 10, 5, 3 and 1 mM) in 37° C., 5% CO2 and 95% incubator. The morphological changes of the sponge were monitored visually every 15 minutes.

[5] = Dynamic of sponge cleavage with time lapse imaging; details: 10 mM TCEP, 37° C., confocal time lapse
Experimental: The propidium iodide-prestained HPCSS Gal sponges were incubated with 10 mM TCEP and its macroporosity changes were monitored by Olympus fluoview FV1000 equipped with 37° C. heated chamber with a 60× water lens for 30 minutes with 2 minutes time interval. Images were analysed using IMARIS and images assembled using Adobe illustrator CS3.

[6] = 3 mM reductant in William's E medium
[7] = 5 mM reductant in William's E medium
[8] = 25 mM reductant in William's E medium

Row | SMILES | primary rat hepatocyte viability (primary rat hepatocyte; 5 mM, 1.5 hour) [%] | primary rat hepatocyte viability (primary rat hepatocyte; 10 mM, 30 minutes) [%] | primary rat hepatocyte viability (primary rat hepatocyte; 25 mM, 30 minutes) [%] | cell damage in phase contrast images (primary rat hepatocyte; hepatocytes with and without TCEP incubation) | maintenance of cell viability (FIG. 10 legend) (primary rat hepatocyte; rat hepatocyte, all TCEP configurations tested) [%] | effect of TCEP incubation on polarity markers and cell-cell junction [1] | remaining viable cells (cells) [%] | effect of TCEP incubation on CYP genes [2] | pH range at which the reductant is effective [3] | Remarks: sponge cleavage [4] | Remarks: time within which sponge cleaved [4, 6] | Remarks: time within which sponge cleaved [4, 7] | Remarks: time within which sponge cleaved [4, 8] | time at which sponge macroporous networks had shrunken significantly [5] [min] | Remarks: time within which sponge cleaved ([4]; 10 mM reductant in William's E medium)
1 | O=C(O)CCP(CCC(=O)O)CCC(=O)O [TCEP, tris(2-carboxyethyl)phosphine] | 79.75±10.71 | 87.42±8.03 | 93.06±6.96 | No significant cell damage | > 80 | does not show harmful effect | 60 | did not show any significant detrimental effect; also recorded: no significant effect | 1.5-8.5 | Sponge not | within 2 hours | within 1.5 hour | within 30 minutes | 6 | 
2 | O[C@H](CS)[C@H](O)CS (racemic) [DTT, dithiothreitol] |  |  |  |  |  |  |  |  | 7-8.1 | Sponge not | within 2 hours | within 1.5 hour | within 30 minutes |  | within 30 minutes
